Legend:
[1] = test system: MIA PaCa-2 human pancreatic carcinoma; assay: MIA PaCa-2 CCK-8 proliferation assay; type: cell-based; details: MIA PaCa-2 cells
How it was run: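 MIA PaCa-2 (2 copies KRAS(G12C)), NCI-H358 and NCI-H23 (1 copy KRAS(G12C) each) were exposed to compound in 3-fold serial dilutions from 20 μM to 1.02 nM. Viability was read as CCK-8 absorbance, and % inhibition was computed against DMSO-treated cells, with cell-free DMSO medium as blank.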

[2] = molecular target: T1, KRAS(G12C) (Homo sapiens, UniProt P01116, G12C); assay: KRAS(G12C)/SOS1 homogeneous time-resolved fluorescence (HTRF) assay; design: purchased Cisbio 63ADK000CB16PEG; details: absence of GTP, 4° C. for 3 hr, read-out: KRAS (G12C) binding
T1 sequence (P01116 1-188 isoform P01116-2 G12C): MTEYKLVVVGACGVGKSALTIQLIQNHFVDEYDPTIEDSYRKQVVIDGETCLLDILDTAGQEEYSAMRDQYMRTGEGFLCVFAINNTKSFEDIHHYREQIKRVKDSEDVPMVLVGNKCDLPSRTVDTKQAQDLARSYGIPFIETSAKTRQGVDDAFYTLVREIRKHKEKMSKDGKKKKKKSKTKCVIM
How it was run: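 HTRF kit measuring compound-induced block of KRAS(G12C)-SOS1 interaction without GTP. Compounds tested as 3-fold serial dilutions down to 1.02 nM, incubated with reaction components 3 h at 4 °C in sealed plates before fluorescence read.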

[3] = molecular target: T1, KRAS(G12C); assay: KRAS(G12C) Western blot protein degradation assay in LU65A cells; type: cell-based; design: LU65A human lung cancer cell line, which expresses KRAS(G12C); host or cells: LU65A; details: 6 hr
Protocol: The following cancer cell lines were employed: BT-474 human breast carcinoma (ATCC, #HTB-20); MIA PaCa-2 human pancreatic carcinoma [2 copies KRAS(G12C)](ATCC, #CRL-1420); NCI-H23 human non-small cell lung cancer [1 copy KRAS(G12C)](ATCC, #CRL-5800); NCI-H358 human non-small cell lung cancer [1 copy KRAS(G12C)](ATCC, #CRL-5807); LU65A human lung carcinoma (Pharmaron, Beijing, China). Cell lines were cultured essentially according to ATCC and Pharmaron recommendations.
KRAS(G12C) Western Blot Protein Degradation Assay
The MIA PaCa-2 human pancreatic carcinoma cell line and LU65A human lung cancer cell line, which expresses KRAS(G12C), were seeded in 6- or 12-well tissue culture plates, and after 1 hr, test compounds were added at various concentrations and incubated at 37° C./5% CO2 for 48 hr (MIA Paca-2) and 6 hr (LU65A) respectively. Cells were then washed with cold PBS, aspirated and cold RIPA buffer containing a protease/phosphatase inhibitor cocktail was added to lyse cells. After centrifugation, the total protein concentrations of cell lysates were determined using the BCA protein assay. Samples were normalized for equivalent protein concentrations, 5×SDS-PAGE loading buffer added and denatured at 100° C. for 10 min. 20 μl of each sample/well was loaded on a SDS-PAGE gel and electrophoresed for 20 min at 80 V, then 120 V for 1.5 hr. Gels were then electroblotted to nitrocellulose membranes using a wet-transfer method at 250 mA for 2.5 hr. Membranes were incubated with blocking buffer for 1 hr and washed 3 times with TBST for 5 min. Membranes were then incubated with anti-KRAS (Sigma-Aldrich, #SAB1404011) and anti-β-Actin monoclonal antibodies (Cell Signaling Technology, #3700) diluted in blocking buffer at 4° C. overnight per the manufacturer's recommendations. After washing 3 times, blots were incubated with appropriately labeled secondary antibodies for 1 hr at room temperature and washed again. Fluorescence imaging and quantitation was performed using a LI-COR Odyssey. Results was analyzed using GraphPad Prism 7 software. Compound degradation of was determined by the following equation and DC50 values (the concentration at which 50% of the maximal degradation of KRAS occurs) calculated using GraphPad Prism 7 software:
% Inhibition=100−(D−B)/(S−B)*100%. • S: Fluorescence intensity of cells with antibody • D: Fluorescence intensity of compound-treated cells with antibody • B: Fluorescence intensity of cells without antibody

EC50 ([1]; Homo sapiens, MIA PaCa-2, 72 h) [nM]	IC50 [2] [nM]	DC50 [3] [nM]	EC50 ([1]; 72 hr) [nM]	SMILES
< 100	< 100	> 1000	–	C=CC(=O)N1CCN(c2nc(OC[C@@H]3C[C@H](N4CCN(CC5CCN(Cc6ccc7c(c6)CN(C(=O)c6cc(C(C)C)c(O)cc6O)C7)CC5)CC4)CN3C)nc3c2CCN(c2cccc4cccc(Cl)c24)C3)C[C@@H]1CC#N [Compound 290, 2-[(2S)-4-[7-(8-chloronaphthalen-1-yl)-2-{[(2S,4S)-4-{4-[(1-{[2-(2,4-dihydroxy-5-isopropylbenzoyl)-1,3-dihydroisoindol-5-yl]methyl}piperidin-4-yl)methyl]piperazin-1-yl}-1-methylpyrrolidin-2-yl]methoxy}-5H,6H,8H-pyrido[3,4-d]pyrimidin-4-yl]-1-(prop-2-enoyl)piperazin-2-yl]acetonitrile]
100 to 1000	–	100 to 1000	–	C=CC(=O)N1CCN(c2nc(OC[C@@H]3CC[C@H](CN4CCN(Cc5ccc(-n6c(O)nnc6-c6cc(C(C)C)c(O)cc6O)cc5)CC4)N3C)nc3c2CCN(c2cccc4cccc(C)c24)C3)C[C@@H]1CC#N [Compound 273, 2-[(2S)-4-(2-{[(2S,5R)-5-{[4-({4-[3-(2,4-dihydroxy-5-isopropylphenyl)-5-hydroxy-1,2,4-triazol-4-yl]phenyl}methyl)piperazin-1-yl]methyl}-1-methylpyrrolidin-2-yl]methoxy}-7-(8-methylnaphthalen-1-yl)-5H,6H,8H-pyrido[3,4-d]pyrimidin-4-yl)-1-(prop-2-enoyl)piperazin-2-yl]acetonitrile]
–	–	> 1000	100 to 1000	C=CC(=O)N1CCN(c2nc(OCCN3CCC(C(=O)N4CCN(Cc5ccc(-n6c(C(=O)NCC(F)(F)F)nnc6-c6cc(C)c(O)cc6O)cc5)CC4)CC3)nc3c2CCN(c2cccc4cccc(Cl)c24)C3)C[C@@H]1CC#N [Compound 253, (S)-4-(4-((4-(1-(2-((4-(4-acryloyl-3-(cyanomethyl)piperazin-1-yl)-7-(8-chloronaphthalen-1-yl)-5,6,7,8-tetrahydropyrido[3,4-d]pyrimidin-2-yl)oxy)ethyl)piperidine-4-carbonyl)piperazin-1-yl)methyl)phenyl)-5-(2,4-dihydroxy-5-methylphenyl)-N-(2,2,2-trifluoroethyl)-4H-1,2,4-triazole-3-carboxamide]
100 to 1000	–	100 to 1000	–	C=CC(=O)N1CCN(c2nc(OC[C@@H]3C[C@H](N4CCN(Cc5ccc(-n6c(C(=O)NCC)nnc6-c6cc(C(C)C)c(O)cc6O)cc5)CC4)CN3C)nc3c2CCN(c2cccc4ccccc24)C3)C[C@@H]1CC#N [Compound 271, 4-[4-({4-[(3S,5S)-5-[({4-[(3S)-3-(cyanomethyl)-4-(prop-2-enoyl)piperazin-1-yl]-7-(naphthalen-1-yl)-5H,6H,8H-pyrido[3,4-d]pyrimidin-2-yl}oxy)methyl]-1-methylpyrrolidin-3-yl]piperazin-1-yl}methyl)phenyl]-5-(2,4-dihydroxy-5-isopropylphenyl)-N-ethyl-1,2,4-triazole-3-carboxamide]
< 100	–	< 100	–	C=CC(=O)N1CCN(c2nc(OC[C@@H]3CC[C@H](CN4CCN(Cc5ccc(-n6c(O)nnc6-c6cc(C(C)C)c(O)cc6O)cc5)CC4)N3C)nc3c2CCN(c2cccc4ccccc24)C3)C[C@@H]1CC#N [Compound 272, 2-[(2S)-4-(2-{[(2S,5R)-5-{[4-({4-[3-(2,4-dihydroxy-5-isopropylphenyl)-5-hydroxy-1,2,4-triazol-4-yl]phenyl}methyl)piperazin-1-yl]methyl}-1-methylpyrrolidin-2-yl]methoxy}-7-(naphthalen-1-yl)-5H,6H,8H-pyrido[3,4-d]pyrimidin-4-yl)-1-(prop-2-enoyl)piperazin-2-yl]acetonitrile]

— patent US20230391772A1, “METHODS AND COMPOSITIONS FOR TARGETED PROTEIN DEGRADATION” (Ranok Therapeutics (Hangzhou) Co. Ltd., priority 2020, published 2023)
